In patent publication US20250194600A1, “MESOIONIC ARYLPYRIDAZINIUM DERIVATIVE OR SALT THEREOF AND INSECTICIDAL AGENT CONTAINING THE COMPOUND AND METHOD FOR USING SAME” (NIHON NOHYAKU CO., LTD., priority 2022, published 2025):

Columns and labels:
[1] = tested on: Small Brown Planthopper (Laodelphax striatellus); test: Insecticidal test on small brown planthopper, dip treatment of rice plant seedlings; assay type: in vivo; conditions: 192 h, rice seedlings dipped 30 seconds, 3rd-instar larvae, counted 8 days after inoculation, read-out: insecticidal efficacy (corrected mortality rate) against small brown planthopper
Source text: (§1) • A: the mortality rate is 100%. • B: the mortality rate is 90 to 99%. • C: the mortality rate is 80 to 89%. • D: the mortality rate is 50 to 79%. • E: the mortality rate is 0 to 49.
Insecticidal Test on Small Brown Planthopper (Laodelphax striatellus)
The compounds represented by the general formula (1) of the present invention or salts thereof were separately dispersed in water and diluted to 50 ppm or 500 ppm. Rice plant seedlings (variety: Nihonbare) were dipped in the agrochemical dispersions for 30 seconds. After air-dried, each seedling was put into a separate glass test tube and inoculated with ten 3rd-instar larvae of small brown planthopper, and then the glass test tubes were capped with cotton plugs. At 8 days after the inoculation, the numbers of surviving larvae and dead larvae were counted, the corrected mortality rate was calculated according to the formula shown below, and the insecticidal efficacy was evaluated according to the criteria of Test Example 1.

[2] = tested on: Western flower thrips (Frankliniella occidentalis); test: Insecticidal test on western flower thrips, larvae on kidney bean leaf pieces; assay type: in vivo; conditions: 96 h, hatched larvae on kidney bean leaf pieces, counted 4 days after treatment, read-out: insecticidal efficacy (corrected mortality rate) against western flower thrips
Source text: as §1
Insecticidal Test on Western flower thrips (Frankliniella occidentalis)
Female adults of western flower thrips were inoculated onto kidney bean leaf pieces, and allowed to lay eggs thereon for one day, then the female adults were removed. After 3 days, the hatched larvae on the leaf pieces were counted, and then the agrochemical dispersions diluted to 50 ppm or 500 ppm, each of which contained the compound described in Tables 1 to 5 as an active ingredient were applied. The number of larvae of the species surviving at 4 days after the treatment was counted, and the corrected mortality rate was calculated according to the formula shown below, and the insecticidal efficacy was evaluated according to the criteria of Test Example 1. This test was conducted in duplicate.

O=C(Nc1ccc(F)cc1)c1c([S-])c[n+](-c2ccc(C(F)(F)F)nc2)nc1O [2-1, 4-((4-fluorophenyl)carbamoyl)-3-hydroxy-1-(6-(trifluoromethyl)pyridin-3-yl)pyridazin-1-ium-5-thiolate]
100%: mortality at 500 ppm [1] | mortality at 50 ppm ([2]; 50 ppm) | mortality at 500 ppm ([2]; 500 ppm)
